Measurements reported in patent US7544497B2, “Compositions for manipulating the lifespan and stress response of cells and organisms” (President and Fellows of Harvard College, priority 2003, dated 2009).
Where “and” joins values, the source holds several entries; their conditions need not be identical. Equal entries are not always repeated. One block for each compound: values may come before it.

Columns and labels:
recombinant human SIRT1 = biological target: T1, recombinant human SIRT1 (Homo sapiens, UniProt Q96EB6); assay: SIRT1 fluorescent deacetylation assay (p53-382 acetylated peptide substrate); type: biochemical; settings: for SIRT1 stimulating activity (in words): 25 μM NAD+, 25 μM p53-382 acetylated peptide
T1 sequence (Q96EB6 1-747): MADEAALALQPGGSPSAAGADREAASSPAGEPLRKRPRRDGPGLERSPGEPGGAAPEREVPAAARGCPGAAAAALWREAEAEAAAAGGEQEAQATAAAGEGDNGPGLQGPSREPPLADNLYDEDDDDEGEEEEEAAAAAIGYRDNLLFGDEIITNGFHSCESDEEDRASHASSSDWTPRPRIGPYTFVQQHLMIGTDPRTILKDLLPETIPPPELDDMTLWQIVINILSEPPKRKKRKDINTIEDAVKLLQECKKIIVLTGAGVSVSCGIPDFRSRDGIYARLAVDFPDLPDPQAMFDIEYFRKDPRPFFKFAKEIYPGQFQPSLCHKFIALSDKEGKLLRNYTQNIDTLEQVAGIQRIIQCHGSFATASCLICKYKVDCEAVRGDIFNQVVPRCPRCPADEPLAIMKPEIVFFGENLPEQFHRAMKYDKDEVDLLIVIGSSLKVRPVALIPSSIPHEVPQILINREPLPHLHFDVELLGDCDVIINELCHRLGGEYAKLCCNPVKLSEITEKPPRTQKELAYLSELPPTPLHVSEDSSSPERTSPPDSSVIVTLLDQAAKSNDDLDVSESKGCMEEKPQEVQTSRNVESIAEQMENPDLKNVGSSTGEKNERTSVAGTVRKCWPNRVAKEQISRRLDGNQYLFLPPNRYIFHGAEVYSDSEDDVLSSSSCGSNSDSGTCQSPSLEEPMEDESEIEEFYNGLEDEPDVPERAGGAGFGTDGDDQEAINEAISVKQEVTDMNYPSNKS
From the text: To identify compounds that modulate SIRT1 activity, we screened a number of small molecule libraries using a fluorescent deacetylation assay in 96-well plates^26. The substrate used in the assay was a fluorogenic peptide based on the sequence encompassing the p53-K382 acetylation site, a known target of SIRT1 in vivo^20,21,27. This substrate was preferred over a variety of other fluorogenic peptide substrates that were based on other known HDAC targets (FIG. 5). The small molecule libraries included analogues of nicotinamide, ε-acetyl lysine, NAD^+, nucleotides, nucleotide analogues and purinergic ligands. From the initial screen, several sirtuin inhibitors were found (Supplementary Table 7). However, the most striking outcome was the identification of two compounds, quercetin and piceatannol, that stimulated SIRT1 activity five and eight-fold, respectively (Table 1). Both quercetin and piceatannol have been previously identified as protein kinase inhibitors^28,29.
His6-tagged recombinant SIRT1 and GST-tagged recombinant Sir2 were prepared as previously described^26. From 0.1 to 1 μg of SIRT1 and 1.5 μg of Sir2 were used per deacetylation assay (in 50 μl total reaction) as previously described^26. SIRT1 assays and certain of those for Sir2 employed the p53-382 acetylated substrate (‘Fluor de Lys-SIRT1’, BIOMOL) rather than FdL.
Themed compound libraries (BIOMOL) were used for primary and secondary screening. […] For water soluble compounds and negative controls, 1% v/v DMSO was added to the assay. […] HeLa cells were grown and the cellular deacetylation assays were performed and read, as above, but in full-volume 96-well microplates (Corning Costar 3595). Unless otherwise indicated all initial rate measurements were means of three or more replicates, obtained with single incubation times, at which point 5% or less of the substrate initially present had been deacetylated. Calculation of net fluorescence increases included subtraction of a blank value, which in the case of Sir2 was obtained by omitting the enzyme from the reaction and in the case of SIRT1 by adding an inhibitor (200 μM suramin or 1 mM nicotinamide) to the reaction prior to the acetylated substrate. […] All error bars represent the standard error of the mean.
All SIRT1 rate measurements used in the calculation of “Ratio to Control Rate” were obtained with 25 μM NAD^+ and 25 μM p53-382 acetylated peptide substrate were performed as described above and in K. T. Howitz et al. Nature (2003) 425: 191. All ratio data were calculated from experiments in which the total deacetylation in the control reaction was 0.25-1.25 μM peptide or 1-5% of the initial concentration of acetylated peptide.

S. cerevisiae = assay: Yeast replicative lifespan by micro-manipulation; settings: 10 μM; for Average lifespan: complete 2% glucose medium, wild type untreated 22.9
C. elegans = C. elegans lifespan assay; type: in vivo; settings: 100/500 μM, N2 worms, E. coli as food; untreated 100%
Description: Thus, the presence of resveratrol in the growth media of C. elegans extends their lifespan.
Bristol N2 (Caenorhabditis Genetics Center) was used as the wild-type strain. The sir-2.1 mutant strain was generated by backcrossing VC199 (sir-2.1 (ok434)) to N2 four times. Cultures were grown on standard NGM media and maintained on E. coli strain OP50. For the lifespan assays, synchronized animals were transferred to treatment plates as young adults (2 d after hatching, day 0 of assay), and were transferred to fresh treatment plates every 2 days for the first 6 to 8 days of the assay. […] For some lifespan trials, heat-killed OP50 were used as a food source. OP50 cultures were heated to 65° C. for 30 minutes, then pelleted and resuspended in 1/10 volume in S Basal supplemented with 10 mM MgSO4. In all assays, worms were monitored daily for mortality by gently probing with a platinum pick. Assays were performed at 24° C.

[1] = Solution stability (t1/2) from SIRT1 fold-stimulation of aged stock; type: physicochemical; settings: ethanol stock 2.5 mM, room temperature, nitrogen atmosphere
From the text: The fold-stimulation (ratio to control) obtained with a compound diluted from an aged stock solution was compared to an identical dilution from a stock solution freshly prepared from the solid compound. “t1/2” is defined as the time required for the SIRT1 fold-stimulation of the compound from the aged solution to decay to one-half of that obtained from a freshly prepared solution. […] Stocks were aged by storage at room temperature, in glass vials, under a nitrogen atmosphere.

Human 293 cells = assay: Survival of 293 cells (Coulter counter); type: cell-based; settings: 50 micromolar
Description: Human 293 were grown to exponential phase under standard conditions and subjected to a dose of compound (50 micromolar) for 96 hours. The number of live cells each time point was counted using a Coulter counter.

SIRT1 deacetylase = biological target: T2, SIRT1 deacetylase (Homo sapiens, UniProt Q96EB6); assay: High-throughput SIRT1 screening protocol (384 well); type: biochemical; settings: 200 μM NAD+, 5 μM Fluor de Lys-SIRT1 substrate; roughly 50 μM
T2 construct: purchased BIOMOL
T2 sequence (Q96EB6 1-747): T1 sequence (Q96EB6 1-747)
Description: The reaction mixture contains (final): 0.5 units/reaction SIRT1 deacetylase (BIOMOL); 200 μM NAD^+; 5 μM Fluor de Lys-SIRT1 substrate (BIOMOL); buffer (25 mM Tris/Cl, pH 8.0, 137 mM NaCl, 2.7 mM KCl, 1 mM MgCl2, and 1 mg/ml BSA). In addition, a reaction mixture containing no enzyme was made so that each well receiving compound has a corresponding “no enzyme control” well. Reactions were performed in black 384 well plates (NUNC) in a final volume of 25 μl/well.
The reactions were started by combining enzyme and substrate in a reaction mixture immediately prior to aliquoting in plates (or substrate only for “no enzyme control” plates). Mixture were aliquoted to plates using Biotek μFill (Biotek Instruments). Control mixtures were manually added to designated wells. A library compound was added at a desired concentration by pin transfer to both “with enzyme” and “no enzyme” plates. Compounds were added in at least triplicate (with enzyme reaction in duplicate and no enzyme controls) at a final concentration of roughly 50 μM. The plates were incubated at 37° C. for 30-60 minutes. Then 25 μl of 1× Developer II (BIOMOL) plus 2 mM nicotinamide were added to all wells to stop the reactions. The reactions were left for at least 30 minutes at 37° C. for the signal to develop. The plates were read in a microplate-reading fluorometer capable of excitation at a wavelength in the range of 350-380 nm and detection of emitted light in the range of 440-460 nm. A read time of 0.1 sec per well was used.

D. melanogaster = D. melanogaster adult survival assay; type: in vivo
Description: Survival assays were conducted independently with adult D. melanogaster in two laboratories. In the first laboratory, all trials used an yw marked wild-type strain. […] Newly eclosed adults were placed in 1L demography cages with approximately 75 males and 75 females. Three to four replicate 1L demography cages were used for each treatment group in each trial. Every two days, dead flies were removed and scored, and food vials were replenished. Food vials contained cornmeal-sugar-yeast diet with SAF yeast as either 2% or 3% by weight. […] Fresh stock solutions and adult media were prepared weekly. In the second laboratory, lifespan trials were conducted with the wild type strain Canton-S, dSir2^4.5 and […], University of Oregon), […], Stockholm University, Sweden), and dSir2^KG00871 (Drosophila Stock Center, Bloomington, Ind.). Larvae for all tests were reared on standard cornmeal-sugar-yeast diet. […] In all trials, 20 males with 20 females were placed into each of 10 vials/treatment group. Every two days, flies were passed into new vials and dead flies were counted. […] Fresh stock solution and adult media was prepared weekly.

- SIRT1 stimulating activity (in words) (recombinant human SIRT1): did not significantly diminish
Structure (SMILES): Oc1cc(O)cc(/C=C/c2ccc(Cl)cc2)c1 [BML-217, 3,5-Dihydroxy-4′-chloro-trans-stilbene]

- SIRT1 stimulating activity (in words) (recombinant human SIRT1): abolished activity
Structure (SMILES): O=C(Nc1cc(O)cc(O)c1)c1ccccc1 [BML-219, N-(3,5-Dihydroxyphenyl)benzamide]

Structure (SMILES): CC(=O)Oc1cc(O)cc(/C=C/c2ccc(O)cc2)c1 [BML-221, 3,4′-Dihydroxy-5-acetoxy-trans-stilbene]
- % change in yeast replicative lifespan relative to untreated organisms (S. cerevisiae; 2% (w/v) glucose YPD, untreated 100%): 165%
- % change in C. elegans lifespan relative to untreated organisms (C. elegans): >100% (ongoing)
- solution stability relative to resveratrol [1]: vast improvement

- SIRT1 stimulating activity (in words) (recombinant human SIRT1): nearly as detrimental
Structure (SMILES): Oc1cc(O)cc(/C=C/C2CCCCC2)c1 [BML-224]

Structure (SMILES): CCc1ccc(/C=C/c2cc(O)cc(O)c2)cc1 [BML-225]
- Survival of 293 cells (Human 293 cells; 0 h): 100%
- Survival of 293 cells (Human 293 cells; 48 h): 5%
- Survival of 293 cells (Human 293 cells; 96 h): 8%

Structure (SMILES): Cc1ccc(/C=C/c2cc(O)cc(O)c2)cc1 [BML-228]
- Survival of 293 cells (Human 293 cells; 0 h): 100%
- Survival of 293 cells (Human 293 cells; 48 h): 46%
- Survival of 293 cells (Human 293 cells; 96 h): 32%

Structure (SMILES): CSc1ccc(/C=C/c2cc(O)cc(O)c2)cc1 [BML-230]
- SIRT1 dose response, stimulated activity compared with resveratrol (recombinant human SIRT1; 25 μM NAD+ and p53-382 acetylated peptide, 20 minutes): exceeds that stimulated by resveratrol at all concentrations tested
- ratio (R) of BML-230-stimulated to resveratrol-stimulated SIRT1 rate (recombinant human SIRT1; 500 μM activator, 25 μM NAD+ and p53-382 acetylated peptide, 20 minutes): ~1.4
- Survival of 293 cells (Human 293 cells; 0 h): 100%
- Survival of 293 cells (Human 293 cells; 48 h): 55%
- Survival of 293 cells (Human 293 cells; 96 h): 57%

Structure (SMILES): [N-]=[N+]=Nc1ccc(/C=C/c2cc(O)cc(O)c2)cc1 [BML-232]
- SIRT1 stimulating activity (in words) (recombinant human SIRT1): very similar SIRT1 activating properties to resveratrol

Structure (SMILES): COc1ccc(/C=C/c2cc(O)cc(O)c2)cc1 [BML-233, 3,5-Dihydroxy-4′-methoxy-trans-stilbene]
- activation of SIRT1 (positive controls) (SIRT1 deacetylase): 2.1 fold

- SIRT1 Vmax decrease (recombinant human SIRT1; 50 μM nicotinamide, absence of resveratrol, NAD+ or p53-382 acetylated peptide varied): 30% and 36%
Structure (SMILES): NC(=O)c1cccnc1 [Nicotinamide]

- SIRT1 stimulating activity (in words) (recombinant human SIRT1): did not significantly diminish
- activation of SIRT1 (positive controls) (SIRT1 deacetylase): 3.28 fold
Structure (SMILES): Oc1cc(O)cc(/C=C/c2ccccc2)c1 [Pinosylvin, 3,5-Dihydroxy-trans-stilbene]

Structure (SMILES): O=C(/C=C/c1ccc(O)c(O)c1)c1ccc(O)cc1O [butein]
- Average lifespan (S. cerevisiae): 35.5 generations

Structure (SMILES): O=c1c(O)c(-c2ccc(O)c(O)c2)oc2cc(O)ccc12 [fisetin]
- Average lifespan (S. cerevisiae): 30.0 generations
- longevity on restricted diet (D. melanogaster; restricted diet): neither resveratrol nor fisetin further increased longevity
- lifespan extension (up to) (D. melanogaster; wild type, males and females, independent tests): up to 23%

- SIRT1 stimulating activity (in words) (recombinant human SIRT1): absence of activity
Structure (SMILES): O=c1c(-c2ccc(O)cc2)coc2cc(O)cc(O)c12 [genistein]

Structure (SMILES): Oc1cc(O)cc(/C=C/c2ccc(O)c(O)c2)c1 [piceatannol]
- Average lifespan (S. cerevisiae): 24.0 generations

Structure (SMILES): O=c1c(O)c(-c2ccc(O)c(O)c2)oc2cc(O)cc(O)c12 [quercetin]
- Average lifespan (S. cerevisiae): 23.4 generations
- stimulation of SIRT1 activity (recombinant human SIRT1; initial screen): five
